Laboratory results: patent publication US20030216426A1 (REGENTS OF THE UNIVERSITY OF CALIFORNIA, priority 2002, published 2003)
Structures can show the parent of a compound that is named as a salt.

How the values were obtained:
[1] = tested on: myeloma cell lines RPM18226; test: Apoptosis induction in myeloma cell line; format: cell-based; details: RPM18226 myeloma cells
MCF7 = test: MTT cell viability assay, MCF7; format: cell-based; details: Homo sapiens, Breast, 72 hours exposure
Experimental: (§1) After 72 hours exposure, the viability of the cells was determined by the rate of conversion of the formazan salt measuring the optical density (OD) at 570 nm (MTT assay).

MDA-231 = test: MTT cell viability assay, MDA-231; format: cell-based; details: Homo sapiens, MDA-MB-231, Breast, 72 hours exposure
Experimental: as §1

HCT-116 = test: MTT cell viability assay, HCT-116; format: cell-based; details: Homo sapiens, Colon, 72 hours exposure
Experimental: as §1

LNCap = test: MTT cell viability assay, LNCap; format: cell-based; details: Homo sapiens, Prostate, 72 hours exposure
Experimental: as §1

SU-DHL1 = test: MTT cell viability assay, SU-DHL1; format: cell-based; details: Homo sapiens, SU-DHL-1, Lymphoma, 72 hours exposure
Experimental: as §1

SU-DHL9 = test: MTT cell viability assay, SU-DHL9; format: cell-based; details: Lymphoma, 72 hours exposure
Experimental: as §1

10C9 = test: MTT cell viability assay, 10C9; format: cell-based; details: Lymphoma, 72 hours exposure
Experimental: as §1

RAJI = test: MTT cell viability assay, RAJI; format: cell-based; details: Homo sapiens, Lymphoma, 72 hours exposure
Experimental: as §1

RPMI8226 = test: MTT cell viability assay, RPMI8226; format: cell-based; details: Homo sapiens, RPMI-8226, Myeloma, 72 hours exposure
Experimental: as §1

U266 = test: MTT cell viability assay, U266; format: cell-based; details: Homo sapiens, U-266, Myeloma, 72 hours exposure
Experimental: as §1

CLL cells = details: not feasible in vivo due to toxicity; cited from earlier work
[2] = tested on: peripheral blood T lymphocytes; details: cited from earlier work
[3] = cited from earlier work
[4] = cited from earlier work; remark: listed apart in the source
[5] = in vivo; cited from earlier work
[6] = tested on: Chronic lymphocytic leukemia cells (CLL); test: Viability/apoptosis of CLL cells by dye exclusion and flow cytometric analysis; format: cell-based, human; details: 10 μM, 48 hours exposure, CLL cells of two patients
Experimental: (§2) After 48 hours exposure, the number of viable cells was determined by dye exclusion and flow cytometric analysis.

[7] = tested on: control normal lymphocytes (PBL); test: Viability/apoptosis of control normal lymphocytes by dye exclusion and flow cytometric analysis; format: cell-based, human; details: 10 μM, 48 hours exposure, PBL of a healthy volunteer
Experimental: as §2

O[C@H](c1cc(C(F)(F)F)nc2c(C(F)(F)F)cccc12)[C@@H]1CCCCN1 (racemic) [(+/−) Mefloquine, (R*, S*)-(±)-alpha-2-piperidinyl-2,8-bis (trifluoromethyl)-4-quinolinemethanol]
IC50 [1]: 10 to 20 µM | IC50 (MCF7): 10 µM | IC50 (MDA-231): 20 µM | IC50 (HCT-116): 6 µM | IC50 (LNCap): 12 µM | IC50 (SU-DHL1): 8 µM | IC50 (SU-DHL9): 7 µM | IC50 (10C9): 9 µM | IC50 (RAJI): 12 µM | IC50 (RPMI8226): 8 µM | IC50 (U266): 11 µM

CCN(CCO)CCCC(C)Nc1ccnc2cc(Cl)ccc12 (stereo not shown) [Hydroxychloroquine, hydroxychloroquine]
concentration active against CLL cells (CLL cells): ≥ 30 µg/mL | induction of apoptosis in peripheral blood T lymphocytes [2]: induce apoptosis

OC(c1cc(C(F)(F)F)nc2c(C(F)(F)F)cccc12)C1CCCCN1 (stereo not shown) [Mefloquine hydrochloride]
solubility in ethanol ([3]; ethanol): soluble in ethanol | solubility in water ([3]; water): slightly soluble in water

O=C(O)c1cc(C(F)(F)F)nc2c(C(F)(F)F)cccc12 [Metabolite, 2,8-bis-trifluoromethyl-4-quinoline carboxylic acid]
Mean (SD) trough concentration, Plasma ([4]; healthy volunteers, 250 mg once weekly for 16 weeks, steady state at week 16, plasma): 9.80 (5.07) μmol · 1^−1 | Mean (SD) trough concentration, Serum ([4]; healthy volunteers, 250 mg once weekly for 16 weeks, steady state at week 16, serum): 9.44 (5.00) μmol · 1^−1 | Mean (SD) trough concentration, Whole Blood ([4]; healthy volunteers, 250 mg once weekly for 16 weeks, steady state at week 16, whole blood): 4.89 (2.58) μmol · 1^−1 | accumulation in the plasma ([4]; plasma, text statement referring to Table 1): up to 10 μM | passage of the blood brain barrier / accumulation in the brain [5]: will not penetrate the brain barrier

O[C@H](c1cc(C(F)(F)F)nc2c(C(F)(F)F)cccc12)[C@@H]1CCCCN1 (relative stereo) [(+/−) Mefloquine, (R*, S*)-(±)-alpha-2-piperidinyl-2,8-bis (trifluoromethyl)-4-quinolinemethanol]
induction of apoptosis in CLL cells [6]: potent apoptosis | induction of apoptosis in normal lymphocytes [7]: not against normal lymphocytes
